The record followed here is US10202372B2, “Trisubstituted pyrido[2,3-D]pyrimidines, methods for preparing same and therapeutic uses thereof” (CENTRE NATIONAL DE LA RECHERCHE SCIENTIFIQUE (C.N.R.S), priority 2012, dated 2019).

One assay has as its target PI3Kα (Homo sapiens, UniProt P42336). Kind of assay: PI3Kα kinase activity, Adapta TR-FRET ADP detection. In kind it is biochemical. The settings on record: purified p110α/p85α heterodimer, triplicate; read-out: Kinases IC50 PI3Kα. On the procedure: (§1) The activity of the PI3Kα kinase was evaluated by using a purified heterodimer (reference: PV4788 from Invitrogen) consisting of the α catalytic p110 subunit (PIK3CA) and the α regulation p85 subunit (PIK3R1). The assay of the kinase with the kit Adapta™ (reference: PV5099 from Invitrogen) is an enzymatic test based on the detection of ADP, produced during the reaction, by the fluorescence technique TR-FRET. It took place in a 384-well plate and was able to be divided into two phases: an enzymatic reaction phase, and a phase for detecting the ADP level.
(§2) During the enzymatic reaction phase, the following components were mixed in 10 μL of a same well: 2.5 μL of each dilution in series of inhibitors taken up in DMSO and then diluted to 1/25 in the reaction buffer (250 mM HEPES pH 7.5, 500 mM NaCl, 0.15 CHAPS, 5 mM EGTA, 15 mM MgCl2 and 1 mM DTT, ref.: PV5101 from Invitrogen), 2.5 μL of a solution containing PI3K at the optimum concentration (concentration defined according to the optimization step described in the operating procedure of the kit) diluted in the same reaction buffer, and finally, 5 μL of a solution containing 20 μM ATP and 100 μM PIP2 diluted in the reaction buffer. For each inhibitor concentration, the reaction was conducted in three copies (triplicate). The reaction was then incubated for 60 min at room temperature without any stirring in darkness.
(§3) During the phase for detecting ADP, 5 μL of a detection solution containing an anti-ADP antibody labeled with europium (6 nM), a tracer of the Alexa Fluor® 647 type coupled with ADP (30 nM), and EDTA (30 mM, for stopping the kinase reaction) were diluted in the dilution buffer (reference: PV3574 from Invitrogen). After 30 min of incubation at room temperature with stirring (40 rpm) in darkness, the 384-well plates were read in a plate reader Victor V configured for HTRF (Perkin Elmer). The excitation was produced at 340 nm and emission was measured at 665 nm and 615 nm. The inhibition curve was then plotted according to the emission ratio at 665 nm/615 nm versus the inhibitor concentration.
(§4) In order to obtain a linear response of the signal, a titration curve ATP-ADP, corresponding to the conversion % of ATP into ADP, was achieved by varying both of these species while keeping [ADP]+[ATP]=10 μM. The emission ratio at 665 nm/615 nm resulting from this (Y) was plotted versus the conversion % of ATP into ADP (X). The data of this curve were formatted according to a model with three hyperbolic parameters from the following equation: Y=C+A*(1−(X/(B+X))).
(§5) The software package GraphPad™ Prism® thus allows calculation of the parameters A, B and C. A conversion % corresponds to an emission ratio 665 nm/615 nm, this percentage is calculated by using the following equation: Conversion %=B*(C+A−Ratio)/(Ratio−C)
(§6) The three parameters A, B and C having been defined by the preceding equation, the conversion % was therefore able to be plotted versus the inhibitor concentration. The amount of inhibitor required for causing a 50% variation in the % conversion of ATP into ADP corresponds to the IC50 value of the inhibitor.
(In TR-FRET formats the signal depends on donor and acceptor labels being close together.)

The target of another assay is PI3Kγ (Homo sapiens, UniProt P48736). Nature of the assay: PI3Kγ kinase activity, Adapta TR-FRET ADP detection. In kind it is biochemical. The settings on record: p110γ catalytic subunit; read-out: Kinases IC50 PI3Kγ. How it is done:
as §1, §2, §3, §4, §5, §6
(§7) The activity of the kinase PI3Kγγ (PV4786 from Invitrogen) was evaluated on the p110γγ catalytic subunit (PI3KCG) and that of the kinase PI3Kδδ on the purified heterodimer (PV5273) respectively consisting of the δδ catalytic p110 subunit (PIK3CD) and the α regulation p85 subunit (PIK3R1) by following the same procedure.

A further assay concerns the target PI3Kδ (Homo sapiens, UniProt O00329). Nature of the assay: PI3Kδ kinase activity, Adapta TR-FRET ADP detection. The assay is classed as biochemical. Conditions: purified p110δ/p85α heterodimer; read-out: Kinases IC50 PI3Kδ. How it is done:
as §1, §2, §3, §4, §5, §6, §7

A further assay concerns the target mTOR (Homo sapiens, UniProt P42345). Kind of assay: mTOR kinase activity, LANCE Ultra TR-FRET. In kind it is biochemical. The settings on record: truncated mTOR protein, triplicate; read-out: Kinases IC50 mTOR. How it is done:
The activity of the mTOR kinase was evaluated by using a purified truncated protein of the amino acids 1-1359 (reference: PV4753 from Invitrogen). The assay of the activity of the enzyme was carried out with the kit LANCE® Ultra which is an enzymatic test based on the detection of a phosphorylated peptide produced during the reaction, by using the fluorescence technique TR-FRET. It took place in a 384-well plate and was able to be divided into two phases: an enzymatic reaction phase and a phase for detecting the phosphorylated peptide.
During the enzymatic reaction phase, the following components were mixed in 10 μL of a same well: 5 μL of each dilution in series of inhibitors taken up in DMSO and then diluted to 1/25 in the reaction buffer (50 mM HEPES pH 7.5, 0.1% Tween-20, 1 mM EGTA, 10 mM MnCl2, 3 mM MgCl2 and 2 mM of DTT), 2.5 μL of a solution containing mTOR at the optimum concentration (concentration defined according to the optimization step described in the operating procedure of the kit) diluted in the same reaction buffer, and finally 2.5 μL of a solution containing 40 μM of ATP and 200 μM non-phosphorylated peptide diluted in the reaction buffer. For each inhibitor concentration, the reaction was conducted in three copies (triplicate). The reaction was then incubated for 120 min at room temperature without any stirring in darkness.
During the phase for detecting the phosphorylated peptide, 5 μL of an EDTA solution (32 mM) diluted in the dilution buffer (ref.: CR97-100 from Perkin Elmer) were injected into each well. After 5 min of incubation with stirring, 5 μL of a phosphorylated anti-peptide antibody solution labeled with europium (8 nM) and diluted in the same dilution buffer was added into each well. After 60 min of incubation at room temperature with stirring (40 rpm) in darkness, the 384-well plates were read in a plate reader Victor V configured for HTRF (Perkin Elmer). […] The inhibition curve was then plotted according to the fluorescence intensity value at 665 nm versus the inhibitor concentration.
The amount of inhibitor required for causing a 50% variation in the intensity of the signal corresponds to the IC50 value of the inhibitor.

The subject of another assay is HUH7. Kind of assay: Toxicity test on cells, HUH7. Conditions: Homo sapiens, Huh-7; 48 hours of treatment, Hoechst nuclei staining. In kind it is cell-based. How it is done: (§8) The compounds according to the invention were also tested on the cell lines HuH7, CaCo-2, HCT116, PC3, NCl, HacaT and Fibroblasts.
(§9) Operating Procedure: The cells were cultivated according to the ECACC recommendations. The toxicity test of the compounds on these cells was conducted as follows: 4×10^3 cells/well were sown in 96 wells. 24 hours after sowing the cells, the cells were exposed to increased concentrations of the compounds (0.1 μM-0.3 μM-0.9 μM-2.7 μM-8.3 μM-25 μM). After 48 hours of treatment, the cells were washed in PBS and bound in a cold ethanol/acetic acid (90/5) mixture for 20 minutes. Next, the nuclei were coloured with […] (Sigma). The acquisition of images and the analysis was carried out by means of a reader Cellomics ArrayScan VTI/HCS (Thermo Scientific).

Another assay concerns CaCo2. Kind of assay: Toxicity test on cells, CaCo2. In kind it is cell-based. The settings on record: Homo sapiens, Caco-2; 48 hours of treatment, Hoechst nuclei staining. How it is done:
as §8, §9

A further assay deals with MDA. Nature of the assay: Toxicity test on cells, MDA. In kind it is cell-based. The settings on record: 48 hours of treatment, Hoechst nuclei staining. How it is done: [The procedure below names another cell line; the source lists this cell line under the same test.] as §8, §9
A further assay deals with HCT116. Kind of assay: Toxicity test on cells, HCT116. In kind it is cell-based. The settings on record: Homo sapiens, HCT-116; 48 hours of treatment, Hoechst nuclei staining. How it is done:
as §8, §9

Another assay relates to PC3. Kind of assay: Toxicity test on cells, PC3. In kind it is cell-based. The settings on record: Homo sapiens, PC-3; 48 hours of treatment, Hoechst nuclei staining. On the procedure:
as §8, §9

The subject of a further assay is NCl. Kind of assay: Toxicity test on cells, NCl. The assay is classed as cell-based. The settings on record: 48 hours of treatment, Hoechst nuclei staining. How it is done: as §8, §9
The next assay has as its system Fibroblasts. Nature of the assay: Toxicity test on cells, Fibroblasts. In kind it is cell-based. Conditions: Fibroblast; 48 hours of treatment, Hoechst nuclei staining. On the procedure:
as §8, §9

Sequence of PI3Kα (P42336 whole entry): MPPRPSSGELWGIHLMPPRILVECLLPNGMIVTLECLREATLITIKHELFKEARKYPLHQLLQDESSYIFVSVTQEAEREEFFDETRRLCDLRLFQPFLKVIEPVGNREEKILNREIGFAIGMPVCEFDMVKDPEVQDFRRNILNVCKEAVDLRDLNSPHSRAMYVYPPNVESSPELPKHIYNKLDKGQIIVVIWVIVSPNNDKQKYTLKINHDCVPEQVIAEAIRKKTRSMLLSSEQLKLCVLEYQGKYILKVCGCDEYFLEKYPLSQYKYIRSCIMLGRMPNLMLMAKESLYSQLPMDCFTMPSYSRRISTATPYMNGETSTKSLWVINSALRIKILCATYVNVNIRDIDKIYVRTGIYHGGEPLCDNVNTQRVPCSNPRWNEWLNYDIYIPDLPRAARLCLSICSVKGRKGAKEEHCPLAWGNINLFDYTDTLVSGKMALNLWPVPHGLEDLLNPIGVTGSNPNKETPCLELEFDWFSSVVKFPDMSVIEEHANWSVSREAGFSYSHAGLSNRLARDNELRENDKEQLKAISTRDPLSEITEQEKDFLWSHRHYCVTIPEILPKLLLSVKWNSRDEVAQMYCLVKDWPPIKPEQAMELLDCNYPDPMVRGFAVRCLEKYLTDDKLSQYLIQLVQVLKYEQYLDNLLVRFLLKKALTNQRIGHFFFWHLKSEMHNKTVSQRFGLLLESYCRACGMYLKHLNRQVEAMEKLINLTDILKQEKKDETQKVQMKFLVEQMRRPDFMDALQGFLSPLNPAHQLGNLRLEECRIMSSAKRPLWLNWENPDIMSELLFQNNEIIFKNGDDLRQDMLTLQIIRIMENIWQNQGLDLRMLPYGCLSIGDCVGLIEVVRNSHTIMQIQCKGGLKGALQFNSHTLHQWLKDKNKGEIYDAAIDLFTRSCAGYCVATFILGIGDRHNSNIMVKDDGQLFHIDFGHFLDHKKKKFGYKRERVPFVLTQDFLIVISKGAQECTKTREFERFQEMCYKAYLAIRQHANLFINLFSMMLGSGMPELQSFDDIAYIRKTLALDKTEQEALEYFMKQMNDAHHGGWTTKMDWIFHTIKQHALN
Sequence of PI3Kα (P27986 whole entry partner): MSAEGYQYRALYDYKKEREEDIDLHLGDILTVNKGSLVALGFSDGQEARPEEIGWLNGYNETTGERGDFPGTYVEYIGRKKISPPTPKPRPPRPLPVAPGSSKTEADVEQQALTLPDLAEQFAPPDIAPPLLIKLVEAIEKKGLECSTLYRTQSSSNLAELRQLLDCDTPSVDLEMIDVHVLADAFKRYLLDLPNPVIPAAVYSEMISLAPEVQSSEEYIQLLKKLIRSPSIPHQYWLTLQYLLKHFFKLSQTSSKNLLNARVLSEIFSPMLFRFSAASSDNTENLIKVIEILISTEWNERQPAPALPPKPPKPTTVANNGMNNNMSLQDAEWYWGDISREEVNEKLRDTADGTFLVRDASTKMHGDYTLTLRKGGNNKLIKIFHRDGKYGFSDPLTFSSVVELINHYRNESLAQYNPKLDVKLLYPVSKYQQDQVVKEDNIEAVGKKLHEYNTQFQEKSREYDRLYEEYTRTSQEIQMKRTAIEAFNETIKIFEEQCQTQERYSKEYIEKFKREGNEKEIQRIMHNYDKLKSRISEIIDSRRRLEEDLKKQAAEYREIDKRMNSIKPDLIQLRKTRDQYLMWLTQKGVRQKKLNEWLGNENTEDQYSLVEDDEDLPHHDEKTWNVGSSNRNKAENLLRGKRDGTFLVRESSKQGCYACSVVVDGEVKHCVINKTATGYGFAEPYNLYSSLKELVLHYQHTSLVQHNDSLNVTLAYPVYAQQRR
Sequence of PI3Kδ (O00329 whole entry): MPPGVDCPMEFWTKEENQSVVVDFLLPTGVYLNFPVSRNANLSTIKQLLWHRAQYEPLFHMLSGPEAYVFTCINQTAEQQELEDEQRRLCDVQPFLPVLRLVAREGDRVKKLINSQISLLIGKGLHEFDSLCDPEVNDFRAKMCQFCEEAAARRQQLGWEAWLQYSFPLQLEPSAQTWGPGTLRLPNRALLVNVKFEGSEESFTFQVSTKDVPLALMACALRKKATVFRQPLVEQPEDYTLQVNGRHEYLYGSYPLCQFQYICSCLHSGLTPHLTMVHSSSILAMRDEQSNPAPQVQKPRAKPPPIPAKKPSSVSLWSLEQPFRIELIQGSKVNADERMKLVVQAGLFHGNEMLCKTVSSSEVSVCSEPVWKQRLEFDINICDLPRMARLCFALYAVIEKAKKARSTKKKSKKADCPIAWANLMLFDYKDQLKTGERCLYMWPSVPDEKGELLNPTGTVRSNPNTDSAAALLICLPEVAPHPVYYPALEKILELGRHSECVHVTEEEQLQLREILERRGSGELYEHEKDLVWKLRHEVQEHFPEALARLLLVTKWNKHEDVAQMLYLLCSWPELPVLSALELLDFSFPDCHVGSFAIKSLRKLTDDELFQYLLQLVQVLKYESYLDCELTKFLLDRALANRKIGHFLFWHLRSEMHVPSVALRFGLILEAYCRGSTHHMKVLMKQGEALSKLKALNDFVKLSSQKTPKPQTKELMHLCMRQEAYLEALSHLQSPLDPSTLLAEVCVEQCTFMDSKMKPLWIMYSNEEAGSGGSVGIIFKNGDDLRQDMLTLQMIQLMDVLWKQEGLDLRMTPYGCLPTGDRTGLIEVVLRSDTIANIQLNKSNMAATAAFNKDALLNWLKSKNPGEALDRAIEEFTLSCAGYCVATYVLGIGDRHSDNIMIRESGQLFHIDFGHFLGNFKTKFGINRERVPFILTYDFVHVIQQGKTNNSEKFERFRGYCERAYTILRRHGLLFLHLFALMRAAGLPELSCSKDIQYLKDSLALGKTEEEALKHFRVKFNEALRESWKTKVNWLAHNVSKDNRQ
Sequence of PI3Kδ (P27986 whole entry partner): as the sequence (P27986 whole entry partner) above
Sequence of PI3Kγ (P48736 whole entry): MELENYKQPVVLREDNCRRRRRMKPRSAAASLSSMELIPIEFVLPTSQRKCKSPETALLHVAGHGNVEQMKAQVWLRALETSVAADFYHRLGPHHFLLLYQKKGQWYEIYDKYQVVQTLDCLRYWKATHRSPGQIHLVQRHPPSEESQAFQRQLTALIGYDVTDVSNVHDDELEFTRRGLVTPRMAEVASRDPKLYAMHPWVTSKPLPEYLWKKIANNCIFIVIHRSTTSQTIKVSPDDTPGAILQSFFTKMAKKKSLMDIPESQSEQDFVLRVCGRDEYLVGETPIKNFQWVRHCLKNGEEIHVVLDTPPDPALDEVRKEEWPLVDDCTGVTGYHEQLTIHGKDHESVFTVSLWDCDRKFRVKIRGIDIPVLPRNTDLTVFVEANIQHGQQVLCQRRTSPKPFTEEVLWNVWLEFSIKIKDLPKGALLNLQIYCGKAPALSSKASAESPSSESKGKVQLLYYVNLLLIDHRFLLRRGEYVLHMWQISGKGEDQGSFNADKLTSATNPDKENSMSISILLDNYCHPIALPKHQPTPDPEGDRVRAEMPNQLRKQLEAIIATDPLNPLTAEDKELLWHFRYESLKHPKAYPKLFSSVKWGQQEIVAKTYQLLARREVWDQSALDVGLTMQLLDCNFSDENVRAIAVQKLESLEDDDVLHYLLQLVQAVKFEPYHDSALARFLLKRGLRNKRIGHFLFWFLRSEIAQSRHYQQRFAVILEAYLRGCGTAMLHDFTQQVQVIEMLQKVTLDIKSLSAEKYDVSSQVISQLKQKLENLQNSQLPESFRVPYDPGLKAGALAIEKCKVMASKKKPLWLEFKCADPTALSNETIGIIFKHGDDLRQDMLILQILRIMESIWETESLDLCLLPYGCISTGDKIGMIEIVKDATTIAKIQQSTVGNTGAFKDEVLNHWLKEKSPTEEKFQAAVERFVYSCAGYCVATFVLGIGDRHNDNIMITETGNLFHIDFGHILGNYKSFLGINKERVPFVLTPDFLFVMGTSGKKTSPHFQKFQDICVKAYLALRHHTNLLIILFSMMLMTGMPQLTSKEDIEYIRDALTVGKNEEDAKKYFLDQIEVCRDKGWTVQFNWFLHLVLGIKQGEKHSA

By IC50 is commonly meant the concentration at which inhibition is half-maximal. On to `O=Cc1cnc2c(N3CCOCC3)nc(-c3cccc(O)c3)nc2c1` [Compound 20, 2-(3-hydroxyphenyl)-4-morpholinopyrido[3,2-d]pyrimidine-7-carbaldehyde], for which the concentration for half-maximal inhibition (IC50) is 47 nM on PI3Kα; > 50000 nM at PI3Kγ; 10 nM on PI3Kδ; 71 nM at mTOR; 20000 nM with HUH7; 4000 nM in the assay on CaCo2. In addition, the half-inhibitory concentration (IC50) with MDA was 20000 nM; in the assay on HCT116, 6000 nM; in the assay with PC3, 25000 nM; with NCl, > 25000 nM; in the assay with Fibroblasts, > 25000 nM.
As for `OCC(O)c1cnc2c(N3CCOCC3)nc(-c3cccc(O)c3)nc2c1` (centres unmarked) [Compound 22, 1-(2-(3-hydroxyphenyl)-4-morpholinopyrido[3,2-d]pyrimidin-7-yl)ethane-1,2-diol], the IC50 on PI3Kα is 82 nM; at PI3Kγ, 344 nM; on PI3Kδ, 41 nM; at mTOR it was 460 nM; in the assay on HUH7, > 25000 nM; in the assay on CaCo2 it was 4000 nM. In addition, the IC50 in the assay with MDA is 10000 nM; in the assay with HCT116, 5000 nM; in the assay with PC3, 4000 nM; with NCl it was > 25000 nM; in the assay with Fibroblasts, > 25000 nM.
On to `O=C(O)c1cnc2c(N3CCOCC3)nc(-c3cccc(O)c3)nc2c1` [Compound 42, 2-(3-hydroxyphenyl)-4-morpholinopyrido[3,2-d]pyrimidine-7-carboxylic acid], for which the 50% inhibitory concentration (IC50) on PI3Kα was 10 nM; on PI3Kγ, 399 nM; on PI3Kδ, 63 nM; at mTOR, 135 nM.
Take `N#CCc1cnc2c(N3CCOCC3)nc(-c3cccc(O)c3)nc2c1` [Compound 41, 2-(2-(3-hydroxyphenyl)-4-morpholinopyrido[3,2-d]pyrimidin-7-yl)acetonitrile]: the concentration for half-maximal inhibition (IC50) came out at 51 nM at PI3Kα, 127 nM on PI3Kγ, 340 nM at PI3Kδ and 820 nM on mTOR.
For `CN(C)Cc1cn(Cc2cnc3c(N4CCOCC4)nc(-c4cccc(O)c4)nc3c2)nn1` [Compound 58, 3-[7-({4-[(dimethylamino)methyl]-1H-1,2,3-triazol-1-yl}methyl)-4-(morpholin-4-yl)pyrido[3,2-d]pyrimidin-2-yl]phenol], the IC50 at PI3Kα stood at 38 nM.
`OCc1cnc2c(N3CCOCC3)nc(-c3cccc(O)c3)nc2c1` [Compound 34, 3-(7-(hydroxymethyl)-4-morpholinopyrido[3,2-d]pyrimidin-2-yl)phenol]: the half-inhibitory concentration (IC50) on PI3Kα came out at 366 nM; on PI3Kγ, 22 nM; at PI3Kδ, 126 nM; at mTOR it was 350 nM; in the assay on HUH7 it was 1000 nM; in the assay on CaCo2, 1500 nM. In addition, the concentration for half-maximal inhibition (IC50) in the assay on MDA is 25000 nM; with HCT116, 3000 nM; with PC3, 5000 nM; in the assay with NCl, > 25000 nM; in the assay with Fibroblasts it was 25000 nM.
Regarding `COCOCc1cn(Cc2cnc3c(N4CCOCC4)nc(-c4cccc(O)c4)nc3c2)nn1` [Compound 59, 3-[7-({4-[(methoxymethoxy)methyl]-1H-1,2,3-triazol-1-yl}methyl)-4-(morpholin-4-yl)pyrido[3,2-d]pyrimidin-2-yl]phenol], at PI3Kα, the concentration for half-maximal inhibition (IC50) was 116 nM.
As to `CS(=O)(=O)N1CCN(Cc2cnc3c(N4CCOCC4)nc(-c4cccc(O)c4)nc3c2)CC1` [Compound 55, 3-{7-[(4-methanesulfonylpiperazin-1-yl)methyl]-4-(morpholin-4-yl)pyrido[3,2-d]pyrimidin-2-yl}phenol], the concentration for half-maximal inhibition (IC50) at PI3Kα was 56 nM.
For the molecule `COCc1cn(Cc2cnc3c(N4CCOCC4)nc(-c4ccc(NC(=O)NCC(F)(F)F)cc4)nc3c2)nn1` [Compound 82, 1-[4-(7-{[4-(methoxymethyl)-1H-1,2,3-triazol-1-yl]methyl}-4-(morpholin-4-yl)pyrido[3,2-d]pyrimidin-2-yl)phenyl]-3-(2,2,2-trifluoroethyl)urea], at PI3Kα, the IC50 came to 18 nM.
As for `O=CCCc1cnc2c(N3CCOCC3)nc(-c3cccc(O)c3)nc2c1` [Compound 46], the concentration for half-maximal inhibition (IC50) turned out to be 57 nM on PI3Kα, 563 nM on PI3Kγ, 81 nM on PI3Kδ and 1900 nM at mTOR.
With `Oc1cccc(-c2nc(N3CCOCC3)c3ncc(Cn4cc(CF)nn4)cc3n2)c1` [Compound 61, 3-(7-{[4-(fluoromethyl)-1H-1,2,3-triazol-1-yl]methyl}-4-(morpholin-4-yl)pyrido[3,2-d]pyrimidin-2-yl)phenol], the half-inhibitory concentration (IC50) at PI3Kα came out at 391 nM.
